Data from ChEMBL document CHEMBL1697692, “Developing structure-activity relationships for the prediction of hepatotoxicity” (Chem Res Toxicol, 2010).

System: Hepatotoxicity
Assay: Literature-mined public compounds from Greene et al multi-species hepatotoxicity modelling dataset

Row | SMILES | Hepatotoxicity
1 | CC(=O)[C@]1(O)Cc2c(O)c3c(c(O)c2[C@@H](O[C@H]2C[C@H](N)[C@H](O)[C@H](C)O2)C1)C(=O)c1ccccc1C3=O.Cl [IDARUBICIN HYDROCHLORIDE] | NE: No evidence of hepatotoxicity in any species
2 | O=c1[nH]c(=O)n([C@H]2C[C@H](O)[C@@H](CO)O2)cc1I [IDOXURIDINE] | HH: Evidence of human hepatotoxicity
3 | O=P1(NCCCl)OCCCN1CCCl (configuration not stated) [IFOSFAMIDE] | HH: Evidence of human hepatotoxicity
4 | CN(C)CCCN1c2ccccc2CCc2ccccc21.Cl [IMIPRAMINE HYDROCHLORIDE] | HH: Evidence of human hepatotoxicity
5 | Nc1cc(-c2ccncc2)c[nH]c1=O [INAMRINONE] | HH: Evidence of human hepatotoxicity
6 | CC1(c2ccccc2)Cc2cc(OCC(=O)O)c(Cl)c(Cl)c2C1=O (configuration not stated) [INDACRINONE] | HH: Evidence of human hepatotoxicity
7 | COc1ccc2c(c1)c(CC(=O)O)c(C)n2C(=O)c1ccc(Cl)cc1 [INDOMETHACIN] | HH: Evidence of human hepatotoxicity
8 | O[C@H]1[C@H](O)[C@@H](O)[C@H](O)[C@@H](O)[C@H]1O [INOSITOL] | NE: No evidence of hepatotoxicity in any species
9 | C[C@H](O)C(=O)Nc1c(I)c(C(=O)NC(CO)CO)c(I)c(C(=O)NC(CO)CO)c1I [IOPAMIDOL] | HH: Evidence of human hepatotoxicity
10 | CC(C)NNC(=O)c1ccncc1 [IPRONIAZID] | HH: Evidence of human hepatotoxicity
11 | CCCCC1=NC2(CCCC2)C(=O)N1Cc1ccc(-c2ccccc2-c2nnn[nH]2)cc1 [IRBESARTAN] | WE: Weak evidence (<10 case reports) of human hepatotoxicity
12 | Cc1cc(C(=O)NNCc2ccccc2)no1 [ISOCARBOXAZID] | WE: Weak evidence (<10 case reports) of human hepatotoxicity
13 | NNC(=O)c1ccncc1 [ISONIAZID] | HH: Evidence of human hepatotoxicity
14 | O=C(O)c1ccncc1 [ISONICOTINIC ACID] | NE: No evidence of hepatotoxicity in any species
15 | CC(C)NCC(O)c1ccc(O)c(O)c1.Cl (configuration not stated) [ISOPROTERENOL HYDROCHLORIDE] | NE: No evidence of hepatotoxicity in any species
16 | O=[N+]([O-])O[C@H]1CO[C@H]2[C@@H]1OC[C@H]2O[N+](=O)[O-] [ISOSORBIDE DINITRATE] | NE: No evidence of hepatotoxicity in any species
17 | CC1=C(/C=C/C(C)=C/C=C/C(C)=C\C(=O)O)C(C)(C)CCC1 [ISOTRETINOIN] | HH: Evidence of human hepatotoxicity
18 | Cc1cc(NC(=O)C2=C(O)c3ccccc3S(=O)(=O)N2C)no1 [ISOXICAM] | NE: No evidence of hepatotoxicity in any species
19 | CC(COc1ccccc1)NC(C)C(O)c1ccc(O)cc1.Cl (configuration not stated) [ISOXSUPRINE HYDROCHLORIDE] | NE: No evidence of hepatotoxicity in any species
20 | CC(=O)N1CCN(c2ccc(OCC3COC(Cn4ccnc4)(c4ccc(Cl)cc4Cl)O3)cc2)CC1 (configuration not stated) [KETOCONAZOLE] | HH: Evidence of human hepatotoxicity
21 | CC(C(=O)O)c1cccc(C(=O)c2ccccc2)c1 (configuration not stated) [KETOPROFEN] | NE: No evidence of hepatotoxicity in any species
22 | NC(CO)(CO)CO.O=C(c1ccccc1)c1ccc2n1CCC2C(=O)O (configuration not stated) [KETOROLAC TROMETHAMINE] | HH: Evidence of human hepatotoxicity
23 | CN1CCC(=C2c3ccccc3CC(=O)c3sccc32)CC1 [KETOTIFEN] | NE: No evidence of hepatotoxicity in any species
24 | CC(CCc1ccccc1)NCC(O)c1ccc(O)c(C(N)=O)c1 (configuration not stated) [LABETALOL] | HH: Evidence of human hepatotoxicity

Row | SMILES | Hepatotoxicity
25 | Nc1ccn([C@@H]2CS[C@H](CO)O2)c(=O)n1 [LAMIVUDINE] | WE: Weak evidence (<10 case reports) of human hepatotoxicity
26 | Cc1oncc1C(=O)Nc1ccc(C(F)(F)F)cc1 [LEFLUNOMIDE] | HH: Evidence of human hepatotoxicity
27 | Nc1nc(=O)c2c([nH]1)NCC(CNc1ccc(C(=O)N[C@@H](CCC(=O)[O-])C(=O)[O-])cc1)N2C=O.[Ca+2] (some centres not stated) [LEUCOVORIN CALCIUM] | NE: No evidence of hepatotoxicity in any species
28 | N[C@@H](Cc1ccc(O)c(O)c1)C(=O)O [LEVODOPA] | NE: No evidence of hepatotoxicity in any species
29 | C[C@H]1COc2c(N3CCN(C)CC3)c(F)cc3c(=O)c(C(=O)O)cn1c23.C[C@H]1COc2c(N3CCN(C)CC3)c(F)cc3c(=O)c(C(=O)O)cn1c23.O [LEVOFLOXACIN] | WE: Weak evidence (<10 case reports) of human hepatotoxicity
30 | CCN(CC)CC(=O)Nc1c(C)cccc1C [LIDOCAINE] | NE: No evidence of hepatotoxicity in any species
31 | N[C@@H](Cc1cc(I)c(Oc2ccc(O)c(I)c2)c(I)c1)C(=O)O [LIOTHYRONINE] | NE: No evidence of hepatotoxicity in any species
32 | NCCCC[C@H](N[C@@H](CCc1ccccc1)C(=O)O)C(=O)N1CCC[C@H]1C(=O)O [LISINOPRIL ANHYDROUS] | HH: Evidence of human hepatotoxicity
33 | C[C@H](CCC(=O)O)[C@H]1CC[C@H]2[C@@H]3CC[C@@H]4C[C@H](O)CC[C@]4(C)[C@H]3CC[C@]12C [LITHOCHOLIC ACID] | AH: Evidence for animal hepatotoxicity but not tested in humans
34 | CN(C)C(=O)C(CCN1CCC(O)(c2ccc(Cl)cc2)CC1)(c1ccccc1)c1ccccc1.Cl [LOPERAMIDE HYDROCHLORIDE] | NE: No evidence of hepatotoxicity in any species
35 | N[C@@H](C(=O)N[C@@H]1C(=O)N2C(C(=O)O)=C(Cl)CC[C@H]12)c1ccccc1 [LORACARBEF ANHYDROUS] | NE: No evidence of hepatotoxicity in any species
36 | CCCCc1nc(Cl)c(CO)n1Cc1ccc(-c2ccccc2-c2nn[nH]n2)cc1 [LOSARTAN] | HH: Evidence of human hepatotoxicity
37 | O=C(O)/C=C\C(=O)O [MALEIC ACID] | AH: Evidence for animal hepatotoxicity but not tested in humans
38 | CNCCCC12CCC(c3ccccc31)c1ccccc12 [MAPROTILINE] | WE: Weak evidence (<10 case reports) of human hepatotoxicity
39 | COC(=O)Nc1nc2ccc(C(=O)c3ccccc3)cc2[nH]1 [MEBENDAZOLE] | HH: Evidence of human hepatotoxicity
40 | Cc1ccc(Cl)c(Nc2ccccc2C(=O)[O-])c1Cl.O.[Na+] [MECLOFENAMATE SODIUM] | HH: Evidence of human hepatotoxicity
41 | CC(=O)O[C@]1(C(C)=O)CC[C@H]2[C@@H]3C[C@H](C)C4=CC(=O)CC[C@]4(C)[C@H]3CC[C@@]21C [MEDROXYPROGESTERONE ACETATE] | WE: Weak evidence (<10 case reports) of human hepatotoxicity
42 | Cc1cccc(Nc2ccccc2C(=O)O)c1C [MEFENAMIC ACID] | HH: Evidence of human hepatotoxicity
43 | COc1ccc2[nH]cc(CCNC(C)=O)c2c1 [MELATONIN] | NE: No evidence of hepatotoxicity in any species
44 | CC12CC3CC(C)(C1)CC(N)(C3)C2 [MEMANTINE] | NE: No evidence of hepatotoxicity in any species
45 | CC1=CC(=O)c2ccccc2C1=O [MENADIONE] | AH: Evidence for animal hepatotoxicity but not tested in humans
46 | CCC1(c2ccccc2)C(=O)NC(=O)N(C)C1=O (configuration not stated) [MEPHOBARBITAL] | HH: Evidence of human hepatotoxicity
47 | CCCC(C)(COC(N)=O)COC(N)=O [MEPROBAMATE] | HH: Evidence of human hepatotoxicity
